This passage reports IC50 and inhibition results from US20080108611A1, “SUBSTITUTED THIENOPYRIMIDINE KINASE INHIBITORS” (priority 2006, published 2008).

T1 sequence (P04626 679-1255): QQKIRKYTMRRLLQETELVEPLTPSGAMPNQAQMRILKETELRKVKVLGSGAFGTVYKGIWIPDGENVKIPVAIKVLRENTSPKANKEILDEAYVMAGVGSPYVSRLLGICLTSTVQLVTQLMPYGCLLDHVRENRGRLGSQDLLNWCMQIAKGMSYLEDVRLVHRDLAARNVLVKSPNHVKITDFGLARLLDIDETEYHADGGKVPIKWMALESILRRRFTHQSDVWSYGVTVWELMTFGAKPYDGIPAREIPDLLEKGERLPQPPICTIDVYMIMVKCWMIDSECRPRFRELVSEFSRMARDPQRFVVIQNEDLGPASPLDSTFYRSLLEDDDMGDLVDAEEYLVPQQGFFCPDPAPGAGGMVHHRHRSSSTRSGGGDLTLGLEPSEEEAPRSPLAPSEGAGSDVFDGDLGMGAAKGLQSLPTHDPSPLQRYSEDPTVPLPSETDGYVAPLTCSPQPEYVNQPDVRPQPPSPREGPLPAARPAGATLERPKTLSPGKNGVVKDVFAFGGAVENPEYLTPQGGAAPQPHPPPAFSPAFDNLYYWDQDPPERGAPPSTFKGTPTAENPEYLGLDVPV

One assay has as its target T1, HER-2 (Homo sapiens, UniProt P04626).
T1 construct: the nucleotides encoding amino acids 679 to 1255 of HER-2; HIS6-Thrombin (His6 tag and thrombin site) (N); purchased Proqinase (Freiburg, Germany)
Briefly: HER-2 Kinase Assay. The assay is classed as biochemical. Conditions: GST-HER2, 1 μM ATP. On the procedure:
HER-2 kinase was purified at Proqinase (Freiburg, Germany) from a construct that consisted of a fusion of GST (Glutathione-S-Transferase), HIS6-Thrombin and the nucleotides encoding amino acids 679 to 1255 of HER-2.
A mixture of a 10× kinase reaction buffer (600 mM Hepes at pH 7.5, 30 mM Magnesium Chloride, 0.03 mM Sodium Vanadate and 500 μg/mL PEG 20,000), DTT (1.2 mM final from a 10 mM stock), ATP (1 μM from a 10 mM stock), biotinylated polyGluTyr (1.5 ng/μL final from stock of 1 μg/μL prepared by Upstate Biotechnologies, Lake Placid, N.Y.), Manganese Chloride (3 mM final from a 1 M stock), γ-^33P-ATP (10 μCi/μL stock) and water (70 μL/well) was added to each well of a Streptavidin Flashplate (Cat. # SMP103, NEN, Boston, Mass.).
Test compound stock (1 μL) was added to the appropriate wells. Diluted GSTHER2 kinase (6.7 ng/μL diluted into 50 mM Tris-HCl at pH 8.0 and 0.1% bovine serum albumin) (30 μL) was added (total volume of 200 ng/well) to initiate the reactions.
The reaction plates were incubated at 30° C. for 1 hr. The reaction was terminated by aspirating the reaction mixture from the plate wells and washing the wells three times with a 1×PBS stop buffer (300 μL) and 100 mM EDTA. After the final wash, the same stop buffer (200 μL) was again added to the wells. The plates were then sealed and read on the TopCount scintillation counter. The IC50 was derived according to the procedure described in Example 1.
As a reminder, the IC50 is the midpoint of a concentration-inhibition curve. Higher therefore signals weaker potency in that assay. Turning to `Cc1cc2c(F)c(Oc3ncnc4sc(C(=O)NCCN5CCOCC5)c(C)c34)ccc2[nH]1` [Cpd 19, 4-(4-fluoro-2-methyl-1H-indol-5-yloxy)-5-methyl-thieno[2,3-d]pyrimidine-6-carboxylic acid (2-morpholin-4-yl-ethyl)-amide], the half-inhibitory concentration (IC50) was more than 100 µM. `Cc1cc2c(F)c(Oc3ncnc4sc(C(=O)Nc5ccc(CN6CCOCC6)cc5)c(C)c34)ccc2[nH]1` [Cpd 20, 4-(4-fluoro-2-methyl-1H-indol-5-yloxy)-5-methyl-thieno[2,3-d]pyrimidine-6-carboxylic acid (4-morpholin-4-ylmethyl-phenyl)-amide] returned a half-maximal inhibitory concentration (IC50) of more than 100 µM. The same measure, in the same setting: the figure for `Cc1cc2c(F)c(Oc3ncnc4sc(C(=O)NCCN5CCCCC5)c(C)c34)ccc2[nH]1` [Cpd 21, 4-(4-fluoro-2-methyl-1H-indol-5-yloxy)-5-methyl-thieno[2,3-d]pyrimidine-6-carboxylic acid (2-piperidin-1-yl-ethyl)-amide] is more than 100 µM.

For `Cc1cc2c(F)c(Oc3ncnc4sc(C(=O)NCCN5CCCC5)c(C)c34)ccc2[nH]1` [Cpd 22, 4-(4-fluoro-2-methyl-1H-indol-5-yloxy)-5-methyl-thieno[2,3-d]pyrimidine-6-carboxylic acid (2-pyrrolidin-1-yl-ethyl)-amide], the half-inhibitory concentration (IC50) is more than 100 µM. The same measure, in the same setting: the figure for `Cc1c(C(=O)Nc2ccc(CN3CCOCC3)cc2)sc2ncnc(Nc3ccc(Oc4ccccc4)cc3)c12` [Cpd 23, 5-methyl-4-(4-phenoxy-phenylamino)-thieno[2,3-d]pyrimidine-6-carboxylic acid (4-morpholin-4-ylmethyl-phenyl)-amide] is more than 100 µM. Still for that read-out and setting: the figure for `Cc1c(C(=O)NCCN2CCOCC2)sc2ncnc(Nc3ccc(Oc4ccccc4)cc3)c12` [Cpd 24] is more than 10 µM. The same measure, in the same setting: the same measure for `COCCNC(=O)c1sc2ncnc(Oc3ccc4[nH]c(C)cc4c3F)c2c1C` [Cpd 27, 4-(4-fluoro-2-methyl-1H-indol-5-yloxy)-5-methyl-thieno[2,3-d]pyrimidine-6-carboxylic acid (2-methoxy-ethyl)-amide]: more than 10 µM.

The target in the next assay is T2, EGFR (Homo sapiens, UniProt P00533).
T2 construct: The intracellular portion of EGFR started at nucleotide 2189 (corresponding to amino acid 667) and ended at the termination codon; made in house; host or cells: Sf9 insect cells (baculovirus)
T2 sequence (P00533 669-1210 limits assumed): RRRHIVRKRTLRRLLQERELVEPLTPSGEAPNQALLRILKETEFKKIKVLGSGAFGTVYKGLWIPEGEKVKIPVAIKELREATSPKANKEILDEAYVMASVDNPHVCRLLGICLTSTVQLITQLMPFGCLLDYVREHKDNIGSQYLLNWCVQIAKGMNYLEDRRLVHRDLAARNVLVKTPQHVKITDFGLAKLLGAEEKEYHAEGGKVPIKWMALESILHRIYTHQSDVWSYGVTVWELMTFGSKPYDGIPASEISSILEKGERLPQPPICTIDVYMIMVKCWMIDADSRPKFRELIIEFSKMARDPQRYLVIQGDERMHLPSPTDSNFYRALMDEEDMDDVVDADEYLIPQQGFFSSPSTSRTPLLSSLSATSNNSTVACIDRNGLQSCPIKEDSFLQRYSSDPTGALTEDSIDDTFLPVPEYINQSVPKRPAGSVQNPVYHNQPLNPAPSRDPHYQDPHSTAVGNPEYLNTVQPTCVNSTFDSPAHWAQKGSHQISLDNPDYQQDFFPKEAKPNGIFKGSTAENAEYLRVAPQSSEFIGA
Kind of assay: EGFR Kinase Assay. It is filed as biochemical. The settings on record: test concentration of 2 μM (compounds without an IC50); read-out: EGFR percent inhibition. From the text: The EGFR kinase used was a fusion of Glutathione-S-Transferase (GST) and a PCR amplified intracellular portion of EGFR (NM_005228). The intracellular portion of EGFR started at nucleotide 2189 (corresponding to amino acid 667) and ended at the termination codon. The portion was PCR amplified with primers that added the lambda attB sequences to each end, recombined into an entry vector, then into a GST destination vector (as described in Gateway Technologies Manual by Invitrogen Corporation, Carlsbad, Calif.).
The destination vector was recombined in the DH10BAC strain of bacteria to produce a bacmid. The bacmid was transfected into Sf 9 cells and the supernatant containing the baculovirus was collected. The GSTEGFR protein was purified using large cultures of Sf 9 cells infected with stock virus. After an appropriate period of time, the cells were collected and lysed. The GSTEGFR was then purified from the lysate on Glutathione-Sepharose columns (as described by Amersham Biosciences, Buckinghamshire, United Kingdom).
The EGFR substrate was prepared by biotinylating polyGluTyr (128 mg) (Sigma, St. Louis, Mo.) in a 1×PBS buffer incubated together with a 12-fold molar excess of Sulfo-NHS-LC-Biotin on ice for at least 2 hrs. The free biotin was separated from the biotinylated polyGluTyr on a gel filtration column.
A mixture of a 10× kinase buffer (500 mM Tris at pH 8.0, 100 mM Magnesium Chloride and 1 mM Sodium Vanadate), DTT (1 mM final from 500 mM stock), ATP (5 μM final from 10 mM stock), biotinylated polyGluTyr (10 μg/μL stock), γ-^33P ATP (10 μCi/μL stock) and water was added to each well (90 μL/well) of a Streptavidin Flashplate (Perkin Elmer, Wellesley, M A).
Test compound in 100% DMSO (2 μL) was added to the appropriate wells. Diluted GSTEGFR (1:300 dilution in 50 mM Tris at pH 8.0 and 0.1% bovine serum albumin) (10 μL) was added to the wells to initiate the reactions.
The plates were incubated at 30° C. for 1 hr with shaking. The reacted contents were removed and the plates were sequentially washed three times with a 1×PBS stop buffer (300 μL without Magnesium and Calcium) and 100 mM EDTA. After the final wash, the same stop buffer (200 μL) was added to the wells. The plates were then sealed and read on the TopCount scintillation counter.
Test compounds were assayed in triplicate at 16 concentrations at half-log dilutions starting at 200 uM. A maximum and minimum signal for the assay was determined on each plate. The percent inhibition of a test compound was calculated according to the formula
For a series of test concentrations, the IC50 was derived by graphing percent inhibition against the log of the concentrations tested for a given compound. For those compounds without an IC50, the percent inhibition results are shown at a test concentration of 2 μM.
Usually inhibition stands for the relative decrease from the control value, in per cent. As for `Cc1cc2c(F)c(Oc3ncnc4sc(C(=O)NCCN5CCOCC5)c(C)c34)ccc2[nH]1` [Cpd 19, 4-(4-fluoro-2-methyl-1H-indol-5-yloxy)-5-methyl-thieno[2,3-d]pyrimidine-6-carboxylic acid (2-morpholin-4-yl-ethyl)-amide], the inhibition at 2 µM is 10%.
